The assay has as its target T1, recombinant human LTA4 hydrolase (rhLTA4H) (Homo sapiens, UniProt P09960).
T1 construct: made in house; host or cells: Spodoptera frugiperda (Sf-9) cells, baculovirus (pFastBac1)
T1 sequence (P09960 1-611): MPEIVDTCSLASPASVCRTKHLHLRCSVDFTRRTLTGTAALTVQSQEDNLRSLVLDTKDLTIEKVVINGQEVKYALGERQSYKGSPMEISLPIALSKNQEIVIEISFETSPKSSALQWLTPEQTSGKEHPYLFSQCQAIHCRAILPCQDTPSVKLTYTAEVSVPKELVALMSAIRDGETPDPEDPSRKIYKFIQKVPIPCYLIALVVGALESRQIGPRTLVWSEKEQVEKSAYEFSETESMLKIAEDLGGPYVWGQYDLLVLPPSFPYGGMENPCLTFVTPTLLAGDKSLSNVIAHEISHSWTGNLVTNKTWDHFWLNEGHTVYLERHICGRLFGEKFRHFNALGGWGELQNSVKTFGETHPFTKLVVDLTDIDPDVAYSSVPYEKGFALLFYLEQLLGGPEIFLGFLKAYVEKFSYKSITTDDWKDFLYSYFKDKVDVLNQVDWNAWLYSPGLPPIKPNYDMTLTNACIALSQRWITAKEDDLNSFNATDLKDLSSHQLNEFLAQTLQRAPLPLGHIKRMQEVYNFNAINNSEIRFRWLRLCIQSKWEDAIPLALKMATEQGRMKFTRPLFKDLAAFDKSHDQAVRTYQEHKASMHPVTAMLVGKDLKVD
Nature of the assay: Recombinant Human LTA4 Hydrolase Assay for LTA4 Hydrolase Inhibitor Activity. The class given is biochemical. As to conditions: average of results obtained; LTB4 quantified by enzyme-linked immunoassay. The method in brief:
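LTB4 formation, quantified by EIA after 10 min at rt, was the read-out once 9 ng LTA4 (free acid) was added to recombinant human enzyme (36 ng, Sf-9 expressed) that had sat 10 min with compound. Buffer: 0.1 M potassium phosphate pH 7.4 with fatty-acid-free BSA; IC50 by 4-parameter fit.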

pKi: −log10 of the molar value. Where a name gives a salt, the structure may show the parent alone.

Regarding `CC(=O)N[C@@H]1C[C@H]2CC[C@@H](C1)N2CCOc1ccc(Oc2nc3cccc(Cl)c3s2)cc1` [Example 195, meso-exo-N-(8-{2-[4-(7-Chloro-benzothiazol-2-yloxy)-phenoxy]-ethyl}-8-aza-bicyclo[3.2.1]oct-3-yl)-acetamide], the pKi (in general, −log10 of the Ki, conventionally taken in molar units) was 5.78.
On to `NCC(=O)N1CC2CCN(Cc3ccc(Oc4nc5ccccc5s4)cc3)C2C1` (stereo not drawn) [Example 96, 2-Amino-1-{1-[4-(benzothiazol-2-yloxy)-benzyl]-hexahydro-pyrrolo[3,4-b]pyrrol-5-yl}-ethanone], for which the pKi is 7.59.
To `O=C(c1ccc[nH]1)N1C[C@@H]2C[C@H]1CN2Cc1ccc(Oc2nc3ccccc3s2)cc1` [Example 62, (S,S)-{5-[4-(Benzothiazol-2-yloxy)-benzyl]-2,5-diaza-bicyclo[2.2.1]hept-2-yl}-(1H-pyrrol-2-yl)-methanone] belongs 7.44; to `c1ccc2sc(Oc3ccc(CN4CCC5CNCC54)cc3)nc2c1` (stereo not drawn) [Example 82, 2-[4-(Hexahydro-pyrrolo[3,4-b]pyrrol-1-ylmethyl)-phenoxy]-benzothiazole hydrochloride], 7.01; to `CS(=O)(=O)N1[C@@H]2CC[C@H]1C[C@H](NCCOc1ccc(Oc3nc4c(F)cccc4s3)cc1)C2` [Example 217, meso-exo-{2-[4-(4-Fluoro-benzothiazol-2-yloxy)-phenoxy]-ethyl}-(8-methanesulfonyl-8-aza-bicyclo[3.2.1]oct-3-yl)-amine], 7.52.
To `NC(=O)N1C[C@H]2C[C@@H]1CN2Cc1ccc(Oc2nc3ccccc3s2)cc1` [Example 34, (R,R)-5-[4-(Benzothiazol-2-yloxy)-benzyl]-2,5-diaza-bicyclo[2.2.1]heptane-2-carboxylic acid amide] belongs 8.15; to `NC(=O)NC1[C@H]2CN(Cc3ccc(Oc4nc5ccccc5s4)cc3)C[C@@H]12` (stereo partly drawn) [Example 140, (R,S)-{3-[4-(Benzothiazol-2-yloxy)-benzyl]-3-aza-bicyclo[3.1.0]hex-6-yl}-urea], 7.72.
On to `O=C(C1CCOCC1)N1CC2CN(Cc3ccc(Oc4nc5ccccc5s4)cc3)CC2C1` (stereo not drawn) [Example 103, {5-[4-(Benzothiazol-2-yloxy)-benzyl]-hexahydro-pyrrolo[3,4-c]pyrrol-2-yl}-(tetrahydro-pyran-4-yl)-methanone], for which the pKi is 7.29.
Take `O=C([C@H]1CCOC1)N1C[C@@H]2C[C@H]1CN2Cc1ccc(Oc2nc3ccccc3s2)cc1` [Example 13, (S,S,S)-{5-[4-(Benzothiazol-2-yloxy)-benzyl]-2,5-diaza-bicyclo[2.2.1]hept-2-yl}-(tetrahydro-furan-3-yl)-methanone]: the pKi was 7.47.
Consider `O=C([C@H]1CCCO1)N1CC2CN(Cc3ccc(Oc4nc5ccccc5s4)cc3)CC2C1` (stereo partly drawn) [Example 100, (R)-{5-[4-(Benzothiazol-2-yloxy)-benzyl]-hexahydro-pyrrolo[3,4-c]pyrrol-2-yl}-(tetrahydro-furan-2-yl)-methanone], for which the pKi is 6.77.
In the case of `NC(=O)N1CC2CN(CCOc3ccc(Oc4nc5ccccc5s4)cc3)CC2C1` (stereo not drawn) [Example 134, 5-{2-[4-(Benzothiazol-2-yloxy)-phenoxy]-ethyl}-hexahydro-pyrrolo[3,4-c]pyrrole-2-carboxylic acid amide], the negative-log Ki (pKi) is 7.49.
As to `c1ccc2sc(Oc3ccc(OCCN4C[C@@H]5C[C@H]4CN5)cc3)nc2c1` [Example 9B, (S,S)-2-{4-[2-(2,5-Diaza-bicyclo[2.2.1]hept-2-yl)-ethoxy]-phenoxy}-benzothiazole trifluoroacetate], the pKi is 7.37.
For `NS(=O)(=O)N1CC2CN(Cc3ccc(Oc4nc5ccccc5s4)cc3)CC2C1` (stereo not drawn) [Example 119, 5-[4-(Benzothiazol-2-yloxy)-benzyl]-hexahydro-pyrrolo[3,4-c]pyrrole-2-sulfonic acid amide], the pKi was 7.14.
To `O=C(CO)N1CCC2CN(Cc3ccc(Oc4nc5ccccc5s4)cc3)CC2C1` (stereo not drawn) [Example 116, 1-{2-[4-(Benzothiazol-2-yloxy)-benzyl]-octahydro-pyrrolo[3,4-c]pyridin-5-yl}-2-hydroxy-ethanone] belongs 7.89; to `NC(=O)N1C[C@H]2C[C@@H]1CN2CCOc1ccc(Oc2nc3cc(Cl)ccc3s2)cc1` [Example 176, (R,R)-5-{2-[4-(5-Chloro-benzothiazol-2-yloxy)-phenoxy]-ethyl}-2,5-diaza-bicyclo[2.2.1]heptane-2-carboxylic acid amide], 6.37.
In the case of `CS(=O)(=O)N1C[C@@H]2C[C@H]1CN2Cc1ccc(Oc2nc3cc(Cl)ccc3s2)cc1` [Example 206, (S,S)-5-Chloro-2-[4-(5-methanesulfonyl-2,5-diaza-bicyclo[2.2.1]hept-2-ylmethyl)-phenoxy]-benzothiazole], the pKi was 5.96.
Then `O=S(=O)(c1cccnc1)N1CC2CN(Cc3ccc(Oc4nc5ccccc5s4)cc3)CC2C1` (stereo not drawn) [Example 120, 2-{4-[5-(Pyridine-3-sulfonyl)-hexahydro-pyrrolo[3,4-c]pyrrol-2-ylmethyl]-phenoxy}-benzothiazole], with 6.69; and `Cc1ccc2nc(Oc3ccc(CN4CC5CN(C(N)=O)CC5C4)cc3)sc2c1` (stereo not drawn) [Example 145, 5-[4-(6-Methyl-benzothiazol-2-yloxy)-benzyl]-hexahydro-pyrrolo[3,4-c]pyrrole-2-carboxylic acid amide], with 6.22; and `CS(=O)(=O)N1[C@@H]2CC[C@H]1C[C@H](NCc1ccc(Oc3nc4ccc(F)cc4s3)cc1)C2` [Example 205, meso-exo-[4-(6-Fluoro-benzothiazol-2-yloxy)-benzyl]-(8-methanesulfonyl-8-aza-bicyclo[3.2.1]oct-3-yl)-amine], with 6.40.
For the molecule `Cc1ccc2nc(Oc3ccc(CCN4[C@@H]5CC[C@H]4C[C@@H](NC(N)=O)C5)cc3)sc2c1` [Example 261, meso-endo-(8-{2-[4-(6-Methyl-benzothiazol-2-yloxy)-phenyl]-ethyl}-8-aza-bicyclo[3.2.1]oct-3-yl)-urea], the pKi was 7.00.
To `NC(=O)N[C@H]1C[C@H]2CC[C@@H](C1)N2Cc1ccc(Oc2nc3cc(Cl)ccc3s2)cc1` [Example 259, meso-endo-{8-[4-(5-Chloro-benzothiazol-2-yloxy)-benzyl]-8-aza-bicyclo[3.2.1]oct-3-yl}-urea] belongs 7.24; to `NCC(=O)N1C[C@H]2C[C@@H]1CN2Cc1ccc(Oc2nc3ccccc3s2)cc1` [Example 29, (R,R)-2-Amino-1-{5-[4-(benzothiazol-2-yloxy)-benzyl]-2,5-diaza-bicyclo[2.2.1]hept-2-yl}-ethanone], 7.11; to `CC(=O)N[C@H]1C[C@H]2CC[C@@H](C1)N2Cc1ccc(Oc2nc3ccc(C)cc3s2)cc1` [Example 73, meso-endo-N-{8-[4-(6-Methyl-benzothiazol-2-yloxy)-benzyl]-8-aza-bicyclo[3.2.1]oct-3-yl}-acetamide], 7.48.
In the case of `CC(=O)N1C[C@H]2C[C@@H]1CN2CCc1ccc(Oc2nc3cc(F)ccc3s2)cc1` [Example 235, (R,R)-1-(5-{2-[4-(5-Fluoro-benzothiazol-2-yloxy)-phenyl]-ethyl}-2,5-diaza-bicyclo[2.2.1]hept-2-yl)-ethanone], the pKi is 7.64.
To `CS(=O)(=O)N1[C@@H]2CC[C@H]1C[C@H](NCCc1ccc(Oc3nc4c(Cl)cccc4s3)cc1)C2` [Example 237, meso-exo-{2-[4-(4-Chloro-benzothiazol-2-yloxy)-phenyl]-ethyl}-(8-methanesulfonyl-8-aza-bicyclo[3.2.1]oct-3-yl)-amine] belongs 6.61; to `Cn1cnc(S(=O)(=O)N2CC3CN(Cc4ccc(Oc5nc6ccccc6s5)cc4)CC3C2)c1` (stereo not drawn) [Example 122, 2-{4-[5-(1-Methyl-1H-imidazole-4-sulfonyl)-hexahydro-pyrrolo[3,4-c]pyrrol-2-ylmethyl]-phenoxy}-benzothiazole], 6.86.
Then `CS(=O)(=O)N1CC2CCC(C1)N2CCc1ccc(Oc2nc3c(Cl)cccc3s2)cc1` [Example 281, meso-4-Chloro-2-{4-[2-(3-methanesulfonyl-3,8-diaza-bicyclo[3.2.1]oct-8-yl)-ethyl]-phenoxy}-benzothiazole], with 5.69; and `CC(=O)N1C[C@@H]2C[C@H]1CN2CCOc1ccc(Oc2nc3ccccc3s2)cc1` [Example 9, (S,S)-1-(5-{2-[4-(Benzothiazol-2-yloxy)-phenoxy]-ethyl}-2,5-diaza-bicyclo[2.2.1]hept-2-yl)-ethanone], with 8.52.
Then `Cn1ccc(C(=O)N2CC3CN(Cc4ccc(Oc5nc6ccccc6s5)cc4)CC3C2)c1` (stereo not drawn) [Example 108, {5-[4-(Benzothiazol-2-yloxy)-benzyl]-hexahydro-pyrrolo[3,4-c]pyrrol-2-yl}-(1-methyl-1H-pyrrol-3-yl)-methanone], with 7.01.
Take `NC(=O)N1CC2CCN(Cc3ccc(Oc4nc5ccccc5s4)cc3)C2C1` (stereo not drawn) [Example 136, 1-[4-(Benzothiazol-2-yloxy)-benzyl]-hexahydro-pyrrolo[3,4-b]pyrrole-5-carboxylic acid amide]: the pKi was 7.62.

For the origin of these results see patent US8344008B2 (Janssen Pharmaceutica NV, priority 2007, dated 2013).
